Values after ≈ are worked out from the molar mass of the structure shown. Where two headings read alike, the source gives them in different places.
Tests used:
[1] = system: auto-inducer (AI-2) production; conditions: cited from earlier work
Rv0091 = Rv0091 (Mycobacterium tuberculosis, UniProt P9WJM3); test: Dissociation constants; type: biochemical
E. coli = conditions: cited from earlier work
Vibrio cholerae = conditions: cited from earlier work
[2] = system: M. smegmatis strain mc^2155; test: Disc-diffusion growth inhibition assay; type: cell-based, Mycobacterium smegmatis; conditions: 96 h, 37 °C
[3] = system: M. tuberculosis strain mc^26230; type: cell-based, Mycobacterium tuberculosis; conditions: disc diffusion, 96 h, 37 °C
H. pylori (J99) = test: Antibacterial activity assay in liquid culture; type: cell-based, Helicobacter pylori

Sequence of Rv0091 (P9WJM3 whole entry, looked up): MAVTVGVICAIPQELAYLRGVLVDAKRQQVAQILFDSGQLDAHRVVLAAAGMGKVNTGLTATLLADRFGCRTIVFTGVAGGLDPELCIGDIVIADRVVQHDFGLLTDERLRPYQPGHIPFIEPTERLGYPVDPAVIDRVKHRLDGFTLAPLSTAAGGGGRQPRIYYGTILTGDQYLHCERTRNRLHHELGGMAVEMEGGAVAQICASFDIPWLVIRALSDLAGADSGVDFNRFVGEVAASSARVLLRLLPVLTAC

For `CCCCSCC1CN(Cc2c[nH]c3c(N)ncnc23)C[C@H]1O` (stereo partly drawn) [Compound 13], the “effect on production of auto-inducer (AI-2)” value [1] is given as “inhibited production”, the “weaker binding than HT-DADMe-ImmA” value (Rv0091; ratio of dissociation constants) is given as 15 times and the toxicity to growth (E. coli) is given as “not toxic”. For the same compound, the toxicity to growth (Vibrio cholerae) was “not toxic”.

With `CCCCCCSC[C@H]1CN(Cc2c[nH]c3c(N)ncnc23)C[C@@H]1O` [Compound 14] the zone of clearance ([2]; 1000 μg/mL) was “small zone of clearance”, the “bound tighter than MT-DADMe-ImmA (11)” value (Rv0091; ratio of Ki values, Table 1) was 17 times and the zone of clearance ([3]; 1000 μg/mL) was “small zone of clearance”. The “more potent than tetracycline” value (H. pylori (J99)) was 6 times and the “IC50 (antibacterial activity; MIC50 in methods)” value (H. pylori (J99); 72 h, 37 °C, OD600) was 0.013 ± 0.0018 µg/mL (≈ 0.0358 µM).

With `CSC[C@@H]1CN(Cc2c[nH]c3c(N)ncnc23)C[C@H]1O` [Compound 20] the “activity toward Rv0091” value (Rv0091; at concentrations of ≤400 μM) was “no activity”.

For `NC[C@H]1O[C@H](O[C@H]2[C@H](O)[C@@H](O[C@H]3O[C@H](CO)[C@@H](O)[C@H](N)[C@H]3O)[C@H](N)C[C@@H]2N)[C@H](O)[C@@H](O)[C@@H]1O` [Kanamycin, reference compound], the zone of clearance ([2]; 100 μg/mL, antibiotic control) was “large zones of clearance” and the zone of clearance ([3]; 100 μg/mL, antibiotic control) was “large zones of clearance”.

From publication PMC6019266 (Biochemistry, 2017)
